This test deals with test plant species. Description: Post-emergent herbicidal activity test (greenhouse, foliar spray, visual growth reduction). The conditions noted are these: post-emergence, 336 h, 140 g ai/ha, 14 days after application. Type of test: in vivo. The method in brief:
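Scoring used a 0 to 100 percent visual scale of growth reduction against solvent-treated controls, read 14 d after spraying. Applications went onto plants at first or second true leaf stage, 187 L/ha, with crop oil concentrate and X-77 surfactant in the carrier. Post-treatment watering was by subirrigation to avoid wash-off.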

[1] abbreviates: ALOMY: blackgrass (Alopecurus myosuroides), read-out: Visual Growth Reduction (%) 14 Days After Application, ALOMY.
Setting [2] is: AMARE: redroot pigweed (Amaranthus retroflexus), read-out: Visual Growth Reduction (%) 14 Days After Application, AMARE.
[3] abbreviates: AVEFA: wild oat (Avena fatua), read-out: Visual Growth Reduction (%) 14 Days After Application, AVEFA.
Where [4] appears, read: CHEAL: lambsquarters (Chenopodium album), read-out: Visual Growth Reduction (%) 14 Days After Application, CHEAL.
[5] abbreviates: CIRAR: canada thistle (Cirsium arvense), read-out: Visual Growth Reduction (%) 14 Days After Application, CIRAR.
Where [6] appears, read: CYPES: yellow nutsedge (Cyperus esculentus), read-out: Visual Growth Reduction (%) 14 Days After Application, CYPES.
[7] abbreviates: DIGSA: crabgrass (Digitaria sanguinalis), read-out: Visual Growth Reduction (%) 14 Days After Application, DIGSA.
The mark [8] stands for this setting: ECHCG: barnyardgrass (Echinochloa crus-galli), read-out: Visual Growth Reduction (%) 14 Days After Application, ECHCG.
Setting [9] is: IPOHE: ivy-leaf morning glory (Ipomoea hederacea), read-out: Visual Growth Reduction (%) 14 Days After Application, IPOHE.
Setting [10] is: KCHSC: kochia (Bassia scoparia), read-out: Visual Growth Reduction (%) 14 Days After Application, KCHSC.
[11] abbreviates: ORYSA: rice (Oryza sativa), read-out: Visual Growth Reduction (%) 14 Days After Application, ORYSA.
Where [12] appears, read: SETFA: giant foxtail (Setaria faberi), read-out: Visual Growth Reduction (%) 14 Days After Application, SETFA.
The mark [13] stands for this setting: SORVU: grain sorghum (Sorghum vulgare), read-out: Visual Growth Reduction (%) 14 Days After Application, SORVU.
The mark [14] stands for this setting: STEME: common chickweed (Stellaria media), read-out: Visual Growth Reduction (%) 14 Days After Application, STEME.
The mark [15] stands for this setting: TRZAS: wheat, spring (Triticum aestivum), read-out: Visual Growth Reduction (%) 14 Days After Application, TRZAS.

Read-outs that look alike come from different tables or passages of the source.

In the case of `COC(=O)c1nc(-c2ccc(SC(F)(F)F)cc2Cl)c(F)cc1Cl` [F135, Methyl 3-chloro-6-(2-chloro-4-((trifluoromethyl)thio)phenyl)-5 fluoropicolinate], the pest or weed control at 140 g/ha lay in the range of 30 to 44% under setting [1]; 95 to 100% under setting [2]; 60 to 74% under setting [3]; 85 to 94% under setting [4]; 95 to 100% under setting [5]; 0 to 29% under setting [6]. The pest or weed control at 140 g/ha is 95 to 100% under setting [7]; 45 to 59% under setting [8]; 95 to 100% under setting [9]; 85 to 94% under setting [10]; 0 to 29% under setting [11]; 85 to 94% under setting [12]. In addition, the pest or weed control at 140 g/ha runs as follows: under setting [13], 95 to 100%; under setting [14], 0 to 29%; under setting [15], 45 to 59%.

On to `COC(=O)c1nc(-c2ccc(C(F)(F)F)c(C)c2Cl)ccc1Cl` [F136, methyl 3-chloro-6-(2-chloro-3-methyl-4-(trifluoromethyl)phenyl)picolinate], for which the pest or weed control at 140 g/ha under setting [1] was 0 to 29%; the pest or weed control at 140 g/ha under setting [2] lay within 95 to 100%; the pest or weed control at 140 g/ha under setting [3] fell in the range of 0 to 29%; the pest or weed control at 140 g/ha under setting [4] was in the range of 75 to 84%; the pest or weed control at 140 g/ha under setting [5] lay within 0 to 29%; the pest or weed control at 140 g/ha under setting [6] fell in the range of 0 to 29%. In addition, the pest or weed control at 140 g/ha was in the range of 60 to 74% under setting [7]; 0 to 29% under setting [8]; 95 to 100% under setting [9]; 45 to 59% under setting [10]; 0 to 29% under setting [11]; 0 to 29% under setting [12]. Besides, the pest or weed control at 140 g/ha under setting [13] is 75 to 84%, the pest or weed control at 140 g/ha under setting [14] was in the range of 0 to 29% and the pest or weed control at 140 g/ha under setting [15] is 0 to 29%.

Turning to `C=Cc1c(C(F)(F)F)ccc(-c2ccc(Cl)c(C(=O)OC)n2)c1Cl` [F137, methyl 3-chloro-6-(2-chloro-4-(trifluoromethyl)-3-vinylphenyl)picolinate], the pest or weed control at 140 g/ha was in the range of 0 to 29% under setting [1]; 60 to 74% under setting [2]; 0 to 29% under setting [3]; 75 to 84% under setting [4]; 0 to 29% under setting [5]; 0 to 29% under setting [6]. Besides, the pest or weed control at 140 g/ha under setting [7] lay in the range of 30 to 44%; the pest or weed control at 140 g/ha under setting [8] fell in the range of 0 to 29%; the pest or weed control at 140 g/ha under setting [9] fell in the range of 95 to 100%; the pest or weed control at 140 g/ha under setting [10] fell in the range of 0 to 29%; the pest or weed control at 140 g/ha under setting [11] is 0 to 29%; the pest or weed control at 140 g/ha under setting [12] was in the range of 0 to 29%. The pest or weed control at 140 g/ha runs as follows: under setting [13], 60 to 74%; under setting [14], 0 to 29%; under setting [15], 0 to 29%.

As to `COC(=O)c1nc(-c2c(Cl)cc(C(F)(F)F)cc2S(C)(=O)=O)ccc1Cl` [F138, methyl 3-chloro-6-(2-chloro-6-(methylsulfonyl)-4-(trifluoromethyl)phenyl)picolinate], the pest or weed control at 140 g/ha fell in the range of 0 to 29% under setting [1]; 85 to 94% under setting [2]; 0 to 29% under setting [3]; 60 to 74% under setting [4]; 60 to 74% under setting [5]; 0 to 29% under setting [6]. In addition, the pest or weed control at 140 g/ha is, setting by setting: under setting [7], 0 to 29%; under setting [8], 0 to 29%; under setting [9], 75 to 84%; under setting [10], 60 to 74%; under setting [11], 0 to 29%; under setting [12], 0 to 29%. The pest or weed control at 140 g/ha lay in the range of 0 to 29% under setting [13], 0 to 29% under setting [14] and 0 to 29% under setting [15].

For the origin of these results see patent US20230017045A1, “PYRIDINE AND PYRIMIDINE CARBOXYLATE HERBICIDES AND METHODS OF USE THEREOF” (Dow AgroSciences LLC, priority 2017, published 2023).
